# Paper PMC7683545, “Human TRPC5 structures reveal interaction of a xanthine-based TRPC1/4/5 inhibitor with a conserved lipid binding site” (Communications Biology, 2020)
# Changes are numbered by the printed parent chain. Names may count otherwise.
# B1: MBP-PreS-hTRPC5(Δ766–975) (complex, human, UniProt Q9UL62 1-765, looked up)
# chain: MAQLYYKKVNYSPYRDRIPLQIVRAETELSAEEKAFLNAVEKGDYATVKQALQEAEIYYNVNINCMDPLGRSALLIAIENENLEIMELLLNHSVYVGDALLYAIRKEVVGAVELLLSYRRPSGEKQVPTLMMDTQFSEFTPDITPIMLAAHTNNYEIIKLLVQKRVTIPRPHQIRCNCVECVSSSEVDSLRHSRSRLNIYKALASPSLIALSSEDPILTAFRLGWELKELSKVENEFKAEYEELSQQCKLFAKDLLDQARSSRELEIILNHRDDHSEELDPQKYHDLAKLKVAIKYHQKEFVAQPNCQQLLATLWYDGFPGWRRKHWVVKLLTCMTIGFLFPMLSIAYLISPRSNLGLFIKKPFIKFICHTASYLTFLFMLLLASQHIVRTDLHVQGPPPTVVEWMILPWVLGFIWGEIKEMWDGGFTEYIHDWWNLMDFAMNSLYLATISLKIMAYVKYNGSRPREEWEMWHPTLIAEALFAISNILSSLRLISLFTANSHLGPLQISLGRMLLDILKFLFIYCLVLLAFANGLNQLYFYYETRAIDEPNNCKGIRCEKQNNAFSTLFETLQSLFWSVFGLLNLYVTNVKARHEFTEFVGATMFGTYNVISLVVLLNMLIAMMNNSYQLIADHADIEWKFARTKLWMSYFDEGGTLPPPFNIIPSPKSFLYLGNWFNNTFCPKRDPDGRRRRRNLRSFTERNADSLIQNQHYQEVIRNLVKRYVAAMIRNSKTHEGLTEENFKELKQDISSFRYEVLDLLGNRK
# notes: Transient Receptor Potential Canonical 5 (TRPC5), human, C-terminally truncated (Δ766–975), carries V455M from the PCR template TRPC5-SYFP2; A PreScission protease site (PreS) lies between MBP and TRPC5; MBP, PreS and the first 16 residues of TRPC5 were not resolved in the map; Homotetrameric channel in amphipol PMAL-C8; also called human TRPC5; TRPC5:C5 channel; not shown: MBP, N-terminal, kept
# Columns and labels:
# TRPC5 [1] = target: T1, TRPC5 (Homo sapiens, UniProt Q9UL62, V455M/Q573T); assay: Fura-2 intracellular calcium assay in transfected HEK […] cells; assay type: cell-based; conditions: read-out: AM237 EC50
# T1 construct: TRPC5-SYFP2 Q573T
# T1 sequence (Q9UL62 1-973 V455M/Q573T): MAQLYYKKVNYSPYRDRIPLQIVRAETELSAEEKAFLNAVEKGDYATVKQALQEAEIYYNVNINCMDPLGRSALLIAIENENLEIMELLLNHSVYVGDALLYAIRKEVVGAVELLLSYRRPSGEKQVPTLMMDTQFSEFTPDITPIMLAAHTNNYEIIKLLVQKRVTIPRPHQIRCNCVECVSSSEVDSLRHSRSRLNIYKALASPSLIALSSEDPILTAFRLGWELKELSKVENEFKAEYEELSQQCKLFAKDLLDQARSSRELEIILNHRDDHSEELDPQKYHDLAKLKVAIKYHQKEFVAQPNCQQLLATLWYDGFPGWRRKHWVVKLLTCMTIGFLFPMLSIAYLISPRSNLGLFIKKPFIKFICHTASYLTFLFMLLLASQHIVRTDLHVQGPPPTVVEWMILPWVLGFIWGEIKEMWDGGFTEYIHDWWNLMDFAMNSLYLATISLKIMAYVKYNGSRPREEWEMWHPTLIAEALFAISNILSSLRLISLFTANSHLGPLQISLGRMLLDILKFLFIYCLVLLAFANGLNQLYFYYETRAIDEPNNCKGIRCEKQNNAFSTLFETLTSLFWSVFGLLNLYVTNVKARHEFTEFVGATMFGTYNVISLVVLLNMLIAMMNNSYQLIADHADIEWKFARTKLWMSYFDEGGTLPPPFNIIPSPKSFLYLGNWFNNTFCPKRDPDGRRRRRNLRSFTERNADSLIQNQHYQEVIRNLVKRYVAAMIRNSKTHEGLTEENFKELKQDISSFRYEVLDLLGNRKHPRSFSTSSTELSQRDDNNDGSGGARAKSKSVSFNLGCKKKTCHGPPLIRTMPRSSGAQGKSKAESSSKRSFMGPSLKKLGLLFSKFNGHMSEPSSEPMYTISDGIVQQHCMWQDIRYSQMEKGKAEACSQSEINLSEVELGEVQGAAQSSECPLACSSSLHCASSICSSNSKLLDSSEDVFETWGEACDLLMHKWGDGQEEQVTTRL
# TRPC5 [2] = target: T2, TRPC5 (Homo sapiens, UniProt Q9UL62, V455M); assay: as above; assay type: cell-based
# T2 construct: TRPC5-SYFP2, wild-type (contains the previously described V455M)
# T2 sequence (Q9UL62 1-973 V455M): T1 sequence (Q9UL62 1-973 V455M/Q573T) with T573Q
# [3] = target: T3, TRPC5 (human TRPC5:C5 channel) (Homo sapiens, UniProt Q9UL62, V455M); assay: cryo-EM structure at […] Å; also inhibition of EA-activated channel in HEK […] calcium assay; assay type: cell-based
# T3 construct: MBP-PreS-hTRPC5Δ766–975 (C-terminally truncated), homotetramer
# T3 sequence (Q9UL62 1-765 V455M): B1 chain
# [4] = target: the molecule itself; assay: cryo-EM structure; purified TRPC5 in PMAL-C8 at 2 mg/ml with 100 µM Pico145 (also 1 mg/ml with 50 µM Pico145 or 20 µM ZnCl2); C4 symmetry, also refined with C1
molecule,measurement,setting,value
Cn1c(=O)n(CCCO)c(=O)c2c1nc(Oc1ccc(Cl)c(OC(F)(F)F)c1)n2Cc1ccc(Cl)cc1 [AM237],EC50,TRPC5 [1],110 nM
same,EC50,TRPC5 [2],10.6 nM
Cn1c(=O)n(CCCO)c(=O)c2c1nc(Oc1cccc(OC(F)(F)F)c1)n2Cc1ccc(Cl)cc1 [Pico145],IC50,[3],4 nM
B1,stoichiometry N,[4],4
